Broadly, the IC50 is the concentration needed to halve the response being measured.

This note sets out measurements from patent US7173014B2, “HIV-specific synthetic oligonucleotides and methods of their use” (priority 1997, dated 2007).

Read-outs that look alike come from different tables or passages of the source.

Data set [1] has as its system clinical strains of HIV-1. The data set is described as follows: AZT and ddI sensitivity of clinical strains of HIV-1 (Table 3). Format: cell-based. The method, then: To determine the preclinical range of anti-HIV activity of various oligonucleotides of the invention (see TABLE 2), evaluations were performed with Oligo 12 (having SEQ ID NO:1), Oligo 32 (SEQ ID NO:3) and Oligo 41 (SEQ ID NO:6). These evaluations were performed to determine the activity of these compounds against a variety of wild type and drug resistant strains of HIV 1, including both laboratory derived and low passage, clinical strains of virus and T lymphocyte tropic and monocyte macrophage tropic viruses such as those listed below in TABLE 3.

The next data set deals with HIV-2 (ROD). The data set is described as follows: XTT-based anti-HIV assay, HIV-2. Type of data set: cell-based. Particulars: XTT assay. An excerpt:
(§1) The initial experiment performed involved evaluation of Oligos 12, 32, and 41 against three laboratory strains of HIV-1 (IIIB, RF and SK1) and one strain of HIV-2 (ROD) in parallel with the positive control compound ddC in the XTT-based anti-HIV assay. All these oligonucleotides are active against both HIV-1 and HIV-2.
(§2) CEM-SS sells (AIDS Research and Reference Reagent Program, NIH) or other established human T cell lines used in these experiments were passaged in T-150 flasks for use in the assay. On the day preceding the assay, the cells were split 1:2 to assure they would be in an exponential growth phase at time of infection. On the day of assay the cells were washed twice with tissue culture medium and resuspended in fresh tissue cultures medium. Total cell and viability counting was performed using a hemacytometer and trypan blue dye exclusion. Cell viability was greater than 95% for the cells to be utilized in the assay. The cells were pelleted and resuspended at 2.5×10^4 cells per ml in tissue culture medium. Cells were added to the drug-containing plates in a volume of 50 μl.
A pretitered aliquot of virus was removed from the freezer −80° C.) and allowed to thaw slowly to room temperature in a biological safety cabinet. The virus was resuspended and diluted into tissue culture medium such that the amount of virus added to each well in a volume of 50 μl will be the amount determined to give complete cell killing at 6 days post-infection. In general the virus pools produced with the IIIB isolate of HIV required the addition of 5 μl of virus per well.
Each plate contained cell control wells (cells only), virus control wells (cells plus virus), drug toxicity control wells (cells plus drug only), drug colorimetric control wells (drug only) as well as experimental wells (drug plus cells plus virus).
After 6 days of incubation at 37° C. in a 5% CO2 incubator, the test plates were analyzed by staining with the tetrazolium dye XTT. XTT-tetrazolium is metabolized by the mitochondrial enzymes of metabolically active cells to a soluble formazan product, allowing the rapid quantitative analysis of the inhibition of HIV-induced cell killing by anti-HIV test substances. On day 6 post-infection plates were removed from the incubator and observed. The use of round bottom microtiter plates allows rapid macroscopic analysis of the activity of a given test compound by the evaluation of pellet size. The results of the macroscopic observations were confirmed and enhanced by further microscopic analysis.
XTT solution was prepared daily as a stock of 1 mg/ml in PBS. Phenazine methosulfate (PMS) solution was prepared at 15 mg/ml in PBS and stored in the dark at −20° C. XTT/PMS stock was prepared immediately before use by diluting the PMS 1:100 into PBS and adding 40 μl per ml of XTT solution. Fifty microliters of XTT/PMS was added to each well of the plate and the plate was incubated for an additional 4 hours at 37° C. Adhesive plate sealers were used in place of the lids, the sealed plate was inverted several times to mix the soluble formazan product and the plate was read spectrophotometrically at A450 nm with a Molecular Devices Vmax plate reader.
A general note: Tetrazolium assays rely on reduction of a dye to a coloured formazan, in cell work by metabolically active cells.

For data set [2], the system named is low passage, clinical strains of HIV-1. The experiment in a line: Anti-HIV activity in fresh human peripheral blood mononuclear cells. Type of data set: cell-based. The conditions noted are these: fresh human PBMC; varies from strain to strain. The method, then: In another experiment, the anti-HIV activity of Oligos 12, 32, and 41 was evaluated against a variety of low passage, clinical strains of HIV-1 in fresh human peripheral blood mononuclear cells. These strains include viruses obtained from pediatric patients attending the Children's Hospital University of Alabama at Birmingham as well as viruses representative of the various HIV-1 clades found throughout the world, shown below in TABLE 4.
Fresh human peripheral blood lymphocytes (PBL) were isolated from voluntary Red Cross donors, seronegative for HIV and HBV. Leukophoresed blood was diluted 1:1 with Dulbecco's phosphate buffered saline (PBS), layered over 14 ml of Ficoll-Hypaque density gradient in a 50 ml centrifuge tube. Tubes were then centrifuged for 30 minutes at 600×g. Banded PBLs were gently aspirated from the resulting interface and subsequently washed 2× with PBS by low speed centrifugation. After final wash, cells were enumerated by trypan blue exclusion and re-suspended at 1×10^7/ml in RPMI 1640 with 15% Fetal Bovine Serum (FBS), 2 mM L-glutamine, […] PHA-P and allowed to incubate for 48–72 hours at 37° C. After incubation, PBLs were centrifuged and reset in RPMI 1640 with 15% FBS, 2 mM L-glutamine, 100 U/ml penicillin, 100 μg/ml streptomycin, 10 μg/ml gentamycin, and 20 U/ml recombinant human IL-2. PBLs were maintained in this medium at a concentration of 1–2×10^6/ml with bi-weekly medium changes, until use in assay protocol. […]
In the standard PBL assay (MOI: 0.2), the assay was ended on day 7 following collection of cell free supernatant samples for reverse transcriptase activity assay. In the low MOI PBL assay (MOI: 0.02), supernatant samples were collected on day 6, day 11, and day 14 post-infection and analyzed for RT activity. […] Opti-Fluor O was added to each sample and incorporated radioactivity was quantified utilizing a liquid scintillation counter, (Wallac 1450 Microbetaplus, Gaithersburg, Md.).

Another data set concerns HIV-1 (IIIB, RF and SK1). The experiment in a line: XTT-based anti-HIV assay, laboratory strains of HIV-1. Type of data set: cell-based.
Source text: as §1
as §2, with “Cells were added to the drug-containing plates in a volume of 50 μl.” left out
A pretitered aliquot of virus was removed from the freezer −80° C.) and allowed to thaw slowly to room temperature in a biological safety cabinet. The virus was resuspended and diluted into tissue culture medium such that the amount of virus added to each well in a volume of 50 μl will be the amount determined to give complete cell killing at 6 days post-infection. […]
After 6 days of incubation at 37° C. in a 5% CO2 incubator, the test plates were analyzed by staining with the tetrazolium dye XTT. XTT-tetrazolium is metabolized by the mitochondrial enzymes of metabolically active cells to a soluble formazan product, allowing the rapid quantitative analysis of the inhibition of HIV-induced cell killing by anti-HIV test substances. […]
XTT solution was prepared daily as a stock of 1 mg/ml in PBS. […] Adhesive plate sealers were used in place of the lids, the sealed plate was inverted several times to mix the soluble formazan product and the plate was read spectrophotometrically at A450 nm with a Molecular Devices Vmax plate reader.

Data set [3] concerns monocyte-macrophage-tropic strains BaL and ADA. The data set is described as follows: Anti-HIV assay in fresh human monocyte-macrophages. Type of data set: cell-based, HIV-1. The protocol:
In addition to these T-tropic strains, the activity of the compounds was also evaluated against the monocyte-macrophage strains BaL and ADA. Oligos 12 and 32 according to the invention, as well as Oligo 41 are active against low passage clinical T-tropic strains of HIV-1. The activity of the compounds varies from strain to strain. The compounds were not active against the monocyte-macrophage-tropic strains BaL and ADA.
For isolation of adherent cells, 3×10^6 non-PHA stimulated peripheral blood cells were resuspended in Hanks buffered saline (with calcium and magnesium) supplemented with 10% human AB serum. The cells were placed in a 24-well microtiter plate at 37° C. for 2 hours. Non-adherent cells were removed by vigorously washing six times. The adherent cells were cultured for 7 days in RPMI 1640 tissue culture medium with 15% fetal bovine serum. The cultures were carefully monitored for confluency during this incubation period. Infection of the cells was performed with the monocytotropic HIV-1 strains BaL or ADA and the matched pair of AZT-sensitive and AZT-resistant virus isolates. Each of these virus isolates was obtained from the NIAID AIDS Research and Reference Reagent Program. High titer pools of each of these viruses have been harvested from infected cultures of peripheral blood adherent cells and frozen in 1.0 ml aliquots at −80° C. Monocyte-macrophage monolayers were infected at an MOI of 0.1. Compounds to be evaluated in the monocyte-macrophage assay are added to the monolayers shortly before infection in order to maximize the potential for identifying active compounds.
At 2 days post-infection, the medium was decanted and the cultures washed twice with complete medium in order to remove excess virus. […] Control curves are generated in each assay to accurately quantify the amount of capsid protein in each sample. Data was obtained by spectrophotometric analysis at 450 nm using a plate reader (Molecular Devices Vmax). P24 concentrations were calculated from the optical density values by use of the Molecular Device software package Soft Max.

As to `Cc1cn([C@H]2C[C@H](N=[N+]=[N-])[C@@H](CO)O2)c(=O)[nH]c1=O` [AZT, 3′-azido-3′-deoxythymidine], the IC50 came to 49 nM in data set [1] (Human immunodeficiency virus 1, isolate BAKI, tropism L, read-out: AZT IC50); 10 nM in data set [1] (Human immunodeficiency virus 1, isolate BLCH, tropism L, read-out: AZT IC50); 15 nM in data set [1] (Human immunodeficiency virus 1, isolate DEJO, tropism L, read-out: AZT IC50); 10 nM in data set [1] (Human immunodeficiency virus 1, isolate RIARL, tropism L, read-out: AZT IC50); 16 nM in data set [1] (Human immunodeficiency virus 1, isolate ROJO, tropism L, read-out: AZT IC50); 16 nM in data set [1] (Human immunodeficiency virus 1, isolate ROMA, tropism M, read-out: AZT IC50). Besides, the IC50 in data set [1] (Human immunodeficiency virus 1, isolate SLKA, tropism M, read-out: AZT IC50) turned out to be 25 nM; in data set [1] (Human immunodeficiency virus 1, isolate STDA, tropism L, read-out: AZT IC50), 17 nM; in data set [1] (Human immunodeficiency virus 1, isolate TEKI, tropism L, read-out: AZT IC50) it was 29 nM; in data set [1] (Human immunodeficiency virus 1, isolate TEKI, tropism M, read-out: AZT IC50) it was 16 nM; in data set [1] (Human immunodeficiency virus 1, isolate VIHU, tropism L, read-out: AZT IC50), 16 nM; in data set [1] (Human immunodeficiency virus 1, isolate WEJO, tropism L, read-out: AZT IC50) it was 56 nM. The IC50 in data set [1] (Human immunodeficiency virus 1, isolate WOME, tropism L, read-out: AZT IC50) came out at 16 nM.

Regarding “CGCACCCATCTCTCTCCUUCU (chemistry not given here) [Oligo 32]”, the “level of activity against the HIV-2 strain ROD” value with HIV-2 (ROD) (compared with the HIV-1 strains) is “enhanced level of activity”. In the data set on HIV-2 (ROD) (strain ROD), the “activity against HIV-2” value is on record as “active”. In addition, the “activity against low passage clinical T-tropic strains of HIV-1” value in data set [2] is on record as “active”. In addition, the “activity against HIV-1” value in the data set on HIV-1 (IIIB, RF and SK1) is recorded as “active”. Also, the “activity against monocyte-macrophage-tropic strains BaL and ADA” value in data set [3] is “not active”.

For `O=c1[nH]cnc2c1ncn2[C@H]1CC[C@@H](CO)O1` [ddi, dideoxyinosine], the IC50 was 2610 nM in data set [1] (isolate BAKI, tropism L, read-out: ddi IC50); 870 nM in data set [1] (isolate ROJO, tropism L, read-out: ddi IC50); 160 nM in data set [1] (isolate ROMA, tropism M, read-out: ddi IC50); 320 nM in data set [1] (isolate SLKA, tropism M, read-out: ddi IC50); 230 nM in data set [1] (isolate STDA, tropism L, read-out: ddi IC50); 370 nM in data set [1] (isolate TEKI, tropism L, read-out: ddi IC50). Also, the IC50 in data set [1] (isolate TEKI, tropism M, read-out: ddi IC50) amounted to 1700 nM; in data set [1] (isolate VIHU, tropism L, read-out: ddi IC50), 1210 nM; in data set [1] (isolate WEJO, tropism L, read-out: ddi IC50), 2180 nM; in data set [1] (isolate WOME, tropism L, read-out: ddi IC50) it was 410 nM.
